According to patent US6432711B1, “Embryonic stem cells capable of differentiating into desired cell lines” (Diacrin, Inc., priority 1993, dated 2002):

How the values were obtained:
Format in all cases: cell-based
[1] = system: embryonic stem cells (ES-D3); assay: Differentiation of embryonic stem cell aggregates into contracting muscle cells by dimethylsulfoxide induction; details: 1% (by volume) dimethylsulfoxide in DMEM plus 10% horse serum, aggregates cultured 5 days in multi-well dishes
Source text: Undifferentiated embryonic stem cells (ES-D3, purchased from the American Type Culture Collection as ATCC catalog no. ATCC CRL 1934) are maintained in supplemented Dulbecco's modified Minimal Essential Medium as described in Example 1. The embryonic stem cells then are trypsinized and washed free of LIF and placed in 1% (by volume) dimethylsulfoxide in DMEM plus 10% horse serum. Two days after the addition of dimethylsulfoxide and plating of cells in Petri dishes to form aggregates, the aggregates are collected and resuspended in fresh medium plus 1% dimethylsulfoxide. The aggregates are then plated onto multi-well untreated culture grade dishes without trypsin treatment. One aggregate is plated per well. The aggregates are cultured for 5 days. Upon culturing of the cells in multi-well dishes, cell cultures in which greater than 80% of the aggregates contain contracting muscle cells are obtained. Such cells may be used to treat cardiomyopathies, myocardial infarction, congestive heart failure, or muscular dystrophy.

[2] = system: D3 and E14 TG2a embryonic stem cell lines transfected with mouse MyoD cDNA; assay: Differentiation of MyoD-transfected embryonic stem cell lines into muscle after dimethylsulfoxide induction
Protocol: For transfection of embryonic stem cells with mouse MyoD cDNA, both the D3 (ATCC catalog no. CRL 1934) and E14 TG2a (ATCC catalog no. CRL 1821) embryonic stem cell lines were used. Embryonic stem cells were cultured as described in Robertson, 1987, except that the cells were maintained in media containing 5 ng/ml human recombinant leukemia inhibitory factor instead of on feeder layers.
Embryonic stem cells were co-transfected with pKJ1-Neo (Dinsmore, et al., Cell, Vol. 64, pgs. 817-826 (1991)), which carries the neomycin resistance gene for selection of stable transfectants, and with pEMCII (Davis, et al., Cell, Vol. 51, pgs. 987-1000 (1987)), which contains a portion of the mouse MyoD cDNA. pKJ1-Neo was linearized at the unique NsiI site and pEMCII was linearized at the unique ScaI site. In order to introduce the linearized plasmids into the embryonic stem cells, the embryonic stem cells were electroporated using a Gene Pulser (Bio Rad) in 0.4 cm gap distance electroporation cuvettes with the Gene Pulser set at 240 volts, 500μ Farads. […]
Stable transfectants were isolated, expanded, frozen, and then stored in liquid nitrogen. […] The percentage of cells that differentiated into skeletal muscle was greater than 90% as assessed by staining for muscle specific myosin, and by the ability of these cells to fuse and form myotubes that spontaneously twitch. […]

[3] = system: embryonic stem cells (ES-E14TG2a); assay: Differentiation of embryonic stem cells into neuronal cells by retinoic acid induction; details: 0.5 μM retinoic acid, aggregates induced four days in DMEM plus 10% FBS, then cultured 5 days in stem cell medium on poly-D-lysine
Source text: Undifferentiated embryonic stem cells (ES-E14TG2a, purchased from the American Type Culture Collection, catalog no. ATCC CRL 1821) are maintained in Dulbecco's modified Minimal Essential Medium (DMEM) supplemented with glutamine, β-mercaptoethanol, 10% (by volume) horse serum, and human recombinant Leukemia Inhibitory Factor (LIF). The LIF replaces the need for maintaining embryonic stem cells on feeder layers of cells, and is essential for maintaining embryonic stem cells in an undifferentiated state.
In order to promote the differentiation of the embryonic stem cells into neuronal cells, the embryonic stem cells are trypsinized and washed free of LIF, and placed in DMEM supplemented with 10% (by volume) fetal bovine serum (FBS). After resuspension in DMEM and 10% FBS, 1×10^6 cells are plated in 5 ml DMEM plus 10% FBS plus 0.5 μM retinoic acid in a 60 mm Fisher brand bacteriological grade Petri dish. In such Petri dishes, embryonic stem cells cannot adhere to the dish, and instead adhere to each other, thus forming small aggregates of cells. Aggregation of cells aids in enabling proper cell differentiation. After two days, aggregates of cells are collected and resuspended in fresh DMEM plus 10% FBS plus 0.5 μM retinoic acid, and replated in Petri dishes for an additional two days. […]

Row | Compound | percentage of aggregates that contain contracting muscle cells [1] | cell types obtained after induction ([2]; MyoD transformants expressing very low amounts of MyoD, indistinguishable from non-transfected embryonic stem cells) | percentage of cells that differentiated into skeletal muscle ([2]; cell lines expressing high amounts of MyoD, staining for muscle specific myosin, fusion into twitching myotubes) | percentage of cells in the culture that are neuronal cells [3]
1 | C[S+](C)[O-] [dimethylsulfoxide] | greater than 80% | mix of cardiac, smooth, and skeletal muscle | greater than 90% | 
2 | CC1=C(/C=C/C(C)=C/C=C/C(C)=C/C(=O)O)C(C)(C)CCC1 [retinoic acid] |  |  |  | greater than 90%
